Measured values reported in paper PMC11763059, “GENI as an AMPK Activator Binds α and γ Subunits and Improves the Memory Dysfunction of Alzheimer’s Disease Mouse Models via Autophagy and Neuroprotection” (Antioxidants, 2025).
pKd: −log10 of the molar value.

Experiments:
[1] = molecular target: T1, AMPK-WT (His-tagged AMPK containing α1β1γ1 protein) (Rattus norvegicus, UniProt P54645+P80385); experiment: SPR analysis of binding to purified wild-type AMPK
T1 construct: His (N); made in house
Experimental: Mammalian AMPK subunits (His-α1, β1, and γ1) were cloned into a pET-3d vector, and protein expression and purification were similar to the literature.
SPR analysis was performed with a Biacore T200 instrument (GE Healthcare). Firstly, the purred His-tagged AMPK containing α1β1γ1 protein was captured onto an activated carboxymethylated 5 (CM5) chip using amine coupling to levels ranging from 4000 RU to 6000 RU. Secondly, GENI was dissolved in PBS-P buffer solution (0.05% (v/v) Tween 20 and PBS), and the concentration of GENI was 64 μM. […] The sample was filtered by pumping through a […] membrane. A gradient concentration of GENI was injected at a flow rate of 30 μL/min in a running buffer (0.05% (v/v) Tween 20 and PBS). The data were analyzed with Biacore evaluation software (T200 version 2.0) and fitted to the 1:1 Langmuir binding model, and the kinetic parameters were derived.

BV-2 cells = experiment: IL-6 ELISA and NO assay in BV-2 cell culture supernatant; format: cell-based, murine; conditions: LPS 1 μg/mL
Experimental: ELISA analysis for NO and interleukin-6 (IL-6) was performed according to the manufacturer described in the material and methods section in Supplementary Information. […]
for 15 seconds, 68 ℃ for 20 seconds. All results were normalized to GAPDH RNA levels, and relative mRNA transcript levels were calculated using the ΔΔCt formula.
1.2. Enzyme-linked immunosorbent assay
BV-2 cells were treated with LPS (1 μg/mL) in the absence or presence of GENI (1, 3 and 10 μM). The cell supernatant was collected at different time points for proinflammatory mediator assay (8 h for IL-6 and 24 h for NO). NO production was quantified using an NO assay kit (S0021S, Beyotime, China), and IL-6 was detected using commercial ELISA kits (EM004, ExCell, China) according to the manufacturer’s instructions.
For NO content evaluation, firstly, the NO assay kit was removed, and Griess Reagents I and II were warmed to room temperature. The standard substance was diluted with cell culture solution to 0, 1, 2, 5, 10, 20, 40, 60 and 100 μM. […] The absorbance was determined with a microplate reader (BioTek, California, USA) at 540 nm. […]
15.625 and 0 pg/mL for use, and blank holes were set. […] About 100 μL of termination solution was added to each hole, and we measured the OD450 value immediately after mixing with a microplate reader (BioTek, California, USA).

AMPK [2] = experiment: Cellular thermal shift assay (CETSA) in PC12 cells, AMPK; format: binding; conditions: 10 μM GENI 2 h, 60 °C to 80 °C
Experimental: (§1) In a 60 mm dish containing 5 mL of DMEM, 2 × 10^6 cells were added and incubated for 24 h. In each plate, 10 μM GENI was added and incubated for 2 h. Cells were harvested and heated at a temperature ranging from 60 °C to 80 °C for PC12 cell samples. We obtained a certain amount of cerebral cortex and hippocampus samples, which were added with PBS and ground. After centrifugation, the supernatant was used as a sample, and we measured the protein concentration with a BCA kit (CoWin Biotech Co., Ltd., Taizhou, Jiangsu, China). The protein of the cerebral cortex or hippocampus was incubated with 10 μM GENI at 37 °C for 2 h and heated from 65 °C to 100 °C for the cerebral cortex sample but 43 °C to 67 °C and 65 °C to 100 °C for the hippocampus sample. Equal volumes of supernatant heated at each temperature point for the control and treatment groups were used for Western blot analysis with the antibody for specific proteins.

AMPK [3] = experiment: CETSA with cerebral cortex and hippocampus protein of mice; format: binding; conditions: cerebral cortex and hippocampus of mice brains
Experimental: as §1

T1 sequence (P54645 13-559 limits assumed): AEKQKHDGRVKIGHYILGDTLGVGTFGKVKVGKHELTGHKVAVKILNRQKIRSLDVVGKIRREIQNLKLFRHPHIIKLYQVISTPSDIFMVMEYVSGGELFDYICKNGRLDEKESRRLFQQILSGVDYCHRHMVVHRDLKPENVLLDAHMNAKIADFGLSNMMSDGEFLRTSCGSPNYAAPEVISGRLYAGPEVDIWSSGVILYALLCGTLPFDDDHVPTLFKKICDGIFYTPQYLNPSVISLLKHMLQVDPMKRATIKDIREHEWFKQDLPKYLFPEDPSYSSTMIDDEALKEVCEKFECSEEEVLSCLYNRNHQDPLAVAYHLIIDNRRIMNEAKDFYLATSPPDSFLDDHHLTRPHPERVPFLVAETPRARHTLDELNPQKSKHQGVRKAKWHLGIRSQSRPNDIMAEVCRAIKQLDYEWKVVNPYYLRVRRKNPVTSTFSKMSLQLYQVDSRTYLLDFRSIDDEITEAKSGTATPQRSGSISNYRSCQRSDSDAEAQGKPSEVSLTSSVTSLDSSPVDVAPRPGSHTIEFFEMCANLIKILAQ
T1 sequence (P80386 whole entry partner): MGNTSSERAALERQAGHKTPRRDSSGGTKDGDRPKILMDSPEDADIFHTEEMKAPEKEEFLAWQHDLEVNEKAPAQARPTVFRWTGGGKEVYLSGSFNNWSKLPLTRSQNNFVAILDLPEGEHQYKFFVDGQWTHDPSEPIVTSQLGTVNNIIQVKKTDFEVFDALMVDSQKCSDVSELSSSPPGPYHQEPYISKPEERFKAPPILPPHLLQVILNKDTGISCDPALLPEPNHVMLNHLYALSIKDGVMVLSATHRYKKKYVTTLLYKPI
T1 sequence (P80385 whole entry): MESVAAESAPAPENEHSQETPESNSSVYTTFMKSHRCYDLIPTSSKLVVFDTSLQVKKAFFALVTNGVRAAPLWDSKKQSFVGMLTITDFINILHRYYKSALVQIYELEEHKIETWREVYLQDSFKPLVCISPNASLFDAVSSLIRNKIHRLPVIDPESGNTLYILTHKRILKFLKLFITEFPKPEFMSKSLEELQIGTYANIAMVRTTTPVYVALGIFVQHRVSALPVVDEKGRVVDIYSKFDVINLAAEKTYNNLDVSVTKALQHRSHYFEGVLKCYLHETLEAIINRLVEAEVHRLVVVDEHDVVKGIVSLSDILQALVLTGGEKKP

Structure (SMILES): CC(C)CCOC(=O)C1=CO[C@@H](O[C@@H]2O[C@H](CO)[C@@H](O)[C@H](O)[C@H]2O)C2C(CO)=CCC12 (stereo partly drawn) [GENI, Geniposidic 4-isoamyl ester]
- pKd ([1]; 1:1 Langmuir binding model): 5.97
- kon ([1]; association rate, read-out: Ka): 2320 M⁻¹ s⁻¹
- secretion of LPS-stimulated pro-inflammatory IL-6 (BV-2 cells; 8 h): significantly reduced
- production of NO (BV-2 cells; 24 h): significantly reduced
- thermal stability of AMPK (CETSA) (AMPK [2]): sensibly increase the thermal stability
- stability of AMPK proteins (CETSA) (AMPK [3]): enhanced the stability
